The subject of assay [1] is HeLa cells. It is filed as cell-based.
Assay [2] has as its system HeLa cells. In kind it is cell-based. This is another data set of the same source.
For assay [3], the system named is Mycobacterium tuberculosis. The settings on record: in vivo; cited from earlier work.

In the case of “TKRRITPKDVIDVRSVTTEINT [Inv3]”, in the assay with HeLa cells [1], the “blocking of uptake of Mcep-coated beads” value is given as “competitively blocked”. Moreover, in the assay on HeLa cells [2], the “concentration of peptide at which internalization of the beads was achieved (as low as)” value turned out to be 25 nM; the “concentration sufficient to permit uptake of the spheres by Hela cells” value is “nanomolar concentration”; the “entry of coated beads into HeLa cells compared with whole Mcep (SEQ. ID. No. 4)” value is “as efficiently as the whole Mcep”; the “uptake of coated 0.3 μm latex microspheres, transmission electron microscopy” value is reported as “uptake”.
Consider `NNC(=O)c1ccncc1` [isoniazid], for which the “effective in preventing the disease” value in assay [3] is “about 90%”.
